The record followed here is patent publication US20220098160A1, “NOVEL CDK 8/19 INHIBITORS” (BIOCAD, priority 2018, published 2022).

A short description of series [1]: Chemical stability in human blood plasma. It counts as in vitro ADME. Particulars: pooled human blood plasma, 10 μM, 4 hours at 37° C., amount of substance remaining. The procedure:
Chemical stability of the compounds described herein was determined in human blood plasma.
The determination of stability in human blood plasma was performed using a pooled human blood plasma taken from ten healthy donors. The initial solution of the candidate (10 mM in DMSO) was diluted with the pooled blood plasma to a concentration of 10 μM (test solution). The test solution was incubated in a solid-state thermostat for 4 hours at 37° C. The HPLC method and Agilent1200 chromatograph (Agilent, USA) were used to determine the peak areas of the compounds in the test samples corresponding to the initial test time (before incubation) and the final test time (after incubation in a solid-state thermostat for 4 hours at 37° C.) with preliminary precipitation of proteins using acetonitrile. Chromatographic analysis was performed using a gradient elution mode at a flow rate of 1 ml/min. The amount of substance in the sample expressed in % was determined after the thermostat treatment.

A short description of series [2]: Enzymatic stability in human liver S9 fractions. The note with it: pooled human liver S9 fraction; 0.5 mg/ml human liver S9, 10 μm compound, 37° C., pH 7.4. Type of series: in vitro ADME. Here is the method: Determining enzymatic stability of the candidates made it possible to evaluate the resistance of the compounds of the present invention to the exposure to biotransformation enzymes.
The enzymatic decomposition rate of the compounds was determined by incubation in a solid-state thermostat at 37° C. of a reaction mixture containing 0.5 mg/ml of pooled S9 fractions of the human liver (XenoTech, USA, cat. # H0610), 10 μm compounds, 2 mM β-nicotinamide adenine dinucleotide (Carbosynth, UK, cat. # NN 10871), and 4 mM magnesium chloride in 0.1 M sodium phosphate buffer (pH=7.4). The reaction was stopped with acetonitrile based on 100 μl of acetonitrile per 100 μl of the reaction mixture. After stopping the reaction, the samples were centrifuged for 10 minutes at 10,000 rpm. The supernatant was analyzed by chromatography using an Agilent1200 chromatograph (Agilent, USA). Chromatographic analysis was performed in a gradient elution mode at a flow rate of 1 ml/min. A logarithm of the peak area of the substance was plotted versus time. The dependent coefficient of this line corresponded to the elimination rate constant (k), which was used to calculate the half-life of the drug (t1/2) and decomposition rate (CLint): […]

Another series relates to MV4-11 cell line. Put plainly: Antiproliferative activity on MV4-11 cell line (AlamarBlue). Type of series: cell-based. The note with it: Homo sapiens, 120 h incubation, average of several runs, read-out: MV-4-11 IC50. Here is the method: The antiproliferative activity of the CDK8 inhibitors according to the present invention was measured in a cell test on a finite MV4-11 cell line (biphenotypic myelomonocytic leukemia, ATCC© CRL-9591™) using an intravital AlamarBlue dye (ThermoFisher, #DAL1100). The cells were grown on an RPMI-1640 medium (PanEco, #C330p) supplemented with 10% FBS (Gibco, #16140-071), then washed and re-seeded on a culture medium with 10% FBS (Gibco, #16140-071) in 96-well culture plates (Corning, #3599) in the amount of ˜10×10^3 cells per 100 μl of medium per well. The tested compounds were dissolved in DMSO and diluted with 10% FBS (Gibco, #16140-071) to a final concentration ranging from 0 to 100 μM. […] At the end of the incubation period, 15 μl of AlamarBlue reagent (ThermoFisher, #DAL1100) were added to the wells. The contents of the plates were mixed using an orbital shaker (Biosan, Latvia), and incubated further from 3 to 5 hours at 37° C. in an incubator with 5% C02. The number of living cells was detected using a microplate spectrophotometer (Tecan Infinite M200Pro, Switzerland) by measuring a fluorescence signal at an excitation wavelength (λEx) of 540 nm and emission wavelength (λEm) of 590 nm.
The IC50 value was determined using the Magellan 7.2 program (Tesap, Switzerland) by approximating the experimental points using a four-parameter model with the Levenberg-Marquardt optimization (Table 10).
For orientation: Alamar Blue is a resazurin reagent that responds to reducing activity.

The nature of series [3]: General cytotoxicity test on HepG2 cells. The note with it: human, 72 hours incubation, 200 to 0.78 μM, average of several runs, read-out: Hep-G2 CC50. It counts as cell-based. Here is the method: The CC50 value was determined in a cytotoxicity test. The experiments were performed using HepG2 cells (hepatocellular carcinoma, ATCC© HB-8065™). The cells were seeded into 96-well plates (Corning, #3599) at a concentration of ˜20×10^3 cells per 100 μl of medium per well, and incubated for 72 hours with the introduced compounds in the concentration range from 200 to 0.78 μM. Cell viability was evaluated according to the method described above.

A word on the microsomal CLint: it is a measure of how fast metabolising enzymes remove a compound, apart from limits set by blood flow. For orientation: IC50 means the midpoint of a concentration-inhibition curve. A word on the CC50: it is the concentration that lowers cell viability or growth by half. On to `CN1CCN(C(=O)c2ccc3cc(CCNc4ccnc5ccc(C#N)cc45)ccc3c2)CC1` [Compound 5, 4-((2-(6-(4-methylpiperazine-1-carbonyl)naphth-2-yl)ethyl)amino) quinoline-6-carbonitryl], for which the “Stability in blood plasma, %” value in series [1] is 100%. The compound also yielded a microsomal CLint at 10 μM in series [2] of 7.2 µL/min/mg. For the same compound, in the series with MV4-11 cell line, the IC50 was found to be 0.125 µM. The 50% cytotoxic concentration (CC50) at 72 h in series [3] was more than 60 µM.
